From the NIST ThermoML archive (doi:10.1016/j.tca.2004.11.015)
± gives the expanded uncertainty stated by the source.

Assay: xn = mol fraction of the nth substance listed
Conditions: 101.33 kPa, Liquid, Vibrating tube method

NCCO [2-aminoethan-1-ol] + CO
mass density (298.15 K, x1 = 0.6001): 956.54 ± 0.32 kg/m3
mass density (298.15 K, x1 = 0.6501): 965.1 ± 0.34 kg/m3
mass density (298.15 K, x1 = 0.7005): 973.37 ± 0.36 kg/m3
mass density (298.15 K, x1 = 0.7479): 980.32 ± 0.38 kg/m3
mass density (298.15 K, x1 = 0.8002): 988.11 ± 0.41 kg/m3
mass density (298.15 K, x1 = 0.8502): 994.53 ± 0.43 kg/m3
mass density (298.15 K, x1 = 0.8967): 1000.67 ± 0.46 kg/m3
mass density (298.15 K, x1 = 0.9501): 1006.88 ± 0.49 kg/m3
mass density (303.15 K, x1 = 0.012): 787.1 ± 0.15 kg/m3
mass density (303.15 K, x1 = 0.031): 795.25 ± 0.15 kg/m3
mass density (303.15 K, x1 = 0.05): 803 ± 0.15 kg/m3
mass density (303.15 K, x1 = 0.1): 822.49 ± 0.15 kg/m3
mass density (303.15 K, x1 = 0.15): 840.37 ± 0.16 kg/m3
mass density (303.15 K, x1 = 0.2002): 857.06 ± 0.17 kg/m3
mass density (303.15 K, x1 = 0.2501): 872.24 ± 0.18 kg/m3
mass density (303.15 K, x1 = 0.2974): 885.69 ± 0.2 kg/m3
mass density (303.15 K, x1 = 0.3502): 899.65 ± 0.22 kg/m3
mass density (303.15 K, x1 = 0.4001): 911.58 ± 0.24 kg/m3
mass density (303.15 K, x1 = 0.4427): 921.28 ± 0.26 kg/m3
mass density (303.15 K, x1 = 0.4502): 923.08 ± 0.26 kg/m3
mass density (303.15 K, x1 = 0.5002): 933.46 ± 0.28 kg/m3
mass density (303.15 K, x1 = 0.5501): 943.18 ± 0.3 kg/m3
mass density (303.15 K, x1 = 0.6001): 952.39 ± 0.32 kg/m3
mass density (303.15 K, x1 = 0.6501): 960.97 ± 0.34 kg/m3
mass density (303.15 K, x1 = 0.7005): 969.28 ± 0.36 kg/m3
mass density (303.15 K, x1 = 0.7479): 976.24 ± 0.38 kg/m3
mass density (303.15 K, x1 = 0.8002): 984.06 ± 0.41 kg/m3
mass density (303.15 K, x1 = 0.8502): 990.5 ± 0.43 kg/m3
mass density (303.15 K, x1 = 0.8967): 996.66 ± 0.46 kg/m3
mass density (303.15 K, x1 = 0.9501): 1002.89 ± 0.48 kg/m3
mass density (308.15 K, x1 = 0.012): 782.38 ± 0.15 kg/m3
mass density (308.15 K, x1 = 0.031): 790.55 ± 0.15 kg/m3
mass density (308.15 K, x1 = 0.05): 798.35 ± 0.15 kg/m3
mass density (308.15 K, x1 = 0.1): 817.92 ± 0.15 kg/m3
mass density (308.15 K, x1 = 0.15): 835.87 ± 0.16 kg/m3
mass density (308.15 K, x1 = 0.2002): 852.62 ± 0.17 kg/m3
mass density (308.15 K, x1 = 0.2501): 867.83 ± 0.19 kg/m3
mass density (308.15 K, x1 = 0.2974): 881.34 ± 0.2 kg/m3
mass density (308.15 K, x1 = 0.3502): 895.33 ± 0.22 kg/m3
mass density (308.15 K, x1 = 0.4001): 907.3 ± 0.24 kg/m3
mass density (308.15 K, x1 = 0.4427): 917.02 ± 0.26 kg/m3
mass density (308.15 K, x1 = 0.4502): 918.84 ± 0.26 kg/m3
mass density (308.15 K, x1 = 0.5002): 929.24 ± 0.28 kg/m3
mass density (308.15 K, x1 = 0.5501): 938.99 ± 0.3 kg/m3
mass density (308.15 K, x1 = 0.6001): 948.22 ± 0.32 kg/m3
mass density (308.15 K, x1 = 0.6501): 956.84 ± 0.34 kg/m3
mass density (308.15 K, x1 = 0.7005): 965.16 ± 0.36 kg/m3
mass density (308.15 K, x1 = 0.7479): 972.15 ± 0.38 kg/m3
mass density (308.15 K, x1 = 0.8002): 980 ± 0.41 kg/m3
mass density (308.15 K, x1 = 0.8502): 986.45 ± 0.43 kg/m3
mass density (308.15 K, x1 = 0.8967): 992.63 ± 0.46 kg/m3
mass density (308.15 K, x1 = 0.9501): 998.89 ± 0.48 kg/m3
mass density (313.15 K, x1 = 0.012): 777.63 ± 0.16 kg/m3
mass density (313.15 K, x1 = 0.031): 785.84 ± 0.15 kg/m3
mass density (313.15 K, x1 = 0.05): 793.66 ± 0.15 kg/m3
mass density (313.15 K, x1 = 0.1): 813.31 ± 0.15 kg/m3
mass density (313.15 K, x1 = 0.15): 831.33 ± 0.16 kg/m3
mass density (313.15 K, x1 = 0.2002): 848.14 ± 0.17 kg/m3
mass density (313.15 K, x1 = 0.2501): 863.41 ± 0.19 kg/m3
mass density (313.15 K, x1 = 0.2974): 876.95 ± 0.2 kg/m3
mass density (313.15 K, x1 = 0.3502): 891 ± 0.22 kg/m3
mass density (313.15 K, x1 = 0.4001): 903 ± 0.24 kg/m3
mass density (313.15 K, x1 = 0.4427): 912.75 ± 0.26 kg/m3
mass density (313.15 K, x1 = 0.4502): 914.57 ± 0.26 kg/m3
mass density (313.15 K, x1 = 0.5002): 925 ± 0.28 kg/m3
mass density (313.15 K, x1 = 0.5501): 934.78 ± 0.3 kg/m3
mass density (313.15 K, x1 = 0.6001): 944.04 ± 0.31 kg/m3
mass density (313.15 K, x1 = 0.6501): 952.68 ± 0.34 kg/m3
mass density (313.15 K, x1 = 0.7005): 961.03 ± 0.36 kg/m3
mass density (313.15 K, x1 = 0.7479): 968.04 ± 0.38 kg/m3
mass density (313.15 K, x1 = 0.8002): 975.92 ± 0.41 kg/m3
mass density (313.15 K, x1 = 0.8502): 982.4 ± 0.43 kg/m3
mass density (313.15 K, x1 = 0.8967): 988.6 ± 0.45 kg/m3
mass density (313.15 K, x1 = 0.9501): 994.88 ± 0.48 kg/m3
mass density (318.15 K, x1 = 0.012): 772.84 ± 0.16 kg/m3
mass density (318.15 K, x1 = 0.031): 781.09 ± 0.16 kg/m3
mass density (318.15 K, x1 = 0.05): 788.95 ± 0.16 kg/m3
mass density (318.15 K, x1 = 0.1): 808.68 ± 0.16 kg/m3
mass density (318.15 K, x1 = 0.15): 826.77 ± 0.16 kg/m3
mass density (318.15 K, x1 = 0.2002): 843.64 ± 0.17 kg/m3
mass density (318.15 K, x1 = 0.2501): 858.96 ± 0.19 kg/m3
